# Measured values: ChEMBL document CHEMBL1201862, “PubChem BioAssay data set” (2004)
#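 Interpolation was linear, between the two tested concentrations surrounding the appropriate level; five concentrations were tested over 48 hours in 96-well plates. GI50 = concentration required for 50% inhibition of growth.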 The source made the active and inactive calls. Cut-off read from the data, not from the text of the source: active = GI50 up to about 1.1 µM and inactive = higher.
# Legend:
# Experiment in all cases: NCI-60 cell line screen, 48 h
# NCI-H23 = test system: NCI-H23
# NCI-H226 = test system: NCI-H226
# CCRF-CEM = test system: CCRF-CEM
# OVCAR-4 = test system: OVCAR-4
# XF498 = test system: XF498
# SF-295 = test system: SF-295
# HL-60 = test system: HL-60
# SN12C = test system: SN12C
# HOP-92 = test system: HOP-92
# 786-0 = test system: 786-0
# HT-29 = test system: HT-29
# OVCAR-3 = test system: OVCAR-3
# HOP-62 = test system: HOP-62
# A549 = test system: A549
# OVCAR-5 = test system: OVCAR-5
# SK-MEL-2 = test system: SK-MEL-2
# HCT-116 = test system: HCT-116
# UO-31 = test system: UO-31
# EKVX = test system: EKVX
# SNB-75 = test system: SNB-75
# SNB-19 = test system: SNB-19
# NCI-H460 = test system: NCI-H460
# K562 = test system: K562
# KM12 = test system: KM12
# DMS-114 = test system: DMS-114
# SK-OV-3 = test system: SK-OV-3
# SNB-78 = test system: SNB-78
# RXF 393 = test system: RXF 393
# SW-620 = test system: SW-620
# SK-MEL-28 = test system: SK-MEL-28
# HOP-18 = test system: HOP-18
# OVCAR-8 = test system: OVCAR-8
# NCI-H522 = test system: NCI-H522
# SF-268 = test system: SF-268
# COLO 205 = test system: COLO 205
# KM-20L2 = test system: KM-20L2
# IGROV-1 = test system: IGROV-1
# UACC-257 = test system: UACC-257
# M19-MEL = test system: M19-MEL
# SR = test system: SR
# U-251 = test system: U-251
# MOLT-4 = test system: MOLT-4
# SF-539 = test system: SF-539
# ACHN = test system: ACHN
# SK-MEL-5 = test system: SK-MEL-5
# DLD-1 = test system: DLD-1
# CAKI-1 = test system: CAKI-1
# Malme-3M = test system: Malme-3M
# DMS-273 = test system: DMS-273
# A498 = test system: A498
# TK-10 = test system: TK-10
# UACC-62 = test system: UACC-62
# M14 = test system: M14
# LOX IMVI = test system: LOX IMVI
# HCC 2998 = test system: HCC 2998
# LXFL 529 = test system: LXFL 529
# HCT-15 = test system: HCT-15
smiles,measurement,setting,value
COc1ccc2c(c1)[n+]([O-])c(-c1ccc(Br)cc1)c(N)[n+]2[O-],GI50,NCI-H23,22.4 µM (inactive)
same,GI50,NCI-H226,66.5 µM (inactive)
same,GI50,CCRF-CEM,50.4 µM (inactive)
same,GI50,OVCAR-4,35.6 µM (inactive)
same,GI50,XF498,68.4 µM (inactive)
same,GI50,SF-295,96.2 µM (inactive)
same,GI50,HL-60,21.1 µM (inactive)
same,GI50,SN12C,47 µM (inactive)
same,GI50,HOP-92,> 100 µM (inactive)
same,GI50,786-0,78 µM (inactive)
same,GI50,HT-29,44.4 µM (inactive)
same,GI50,OVCAR-3,35.4 µM (inactive)
same,GI50,HOP-62,88.3 µM (inactive)
same,GI50,A549,32.1 µM (inactive)
same,GI50,OVCAR-5,60 µM (inactive)
same,GI50,SK-MEL-2,32.4 µM (inactive)
same,GI50,HCT-116,30.6 µM (inactive)
same,GI50,UO-31,80.2 µM (inactive)
same,GI50,EKVX,51.1 µM (inactive)
same,GI50,SNB-75,63.1 µM (inactive)
same,GI50,SNB-19,> 100 µM (inactive)
same,GI50,NCI-H460,36.3 µM (inactive)
same,GI50,K562,39.2 µM (inactive)
same,GI50,KM12,58.5 µM (inactive)
same,GI50,DMS-114,23.1 µM (inactive)
same,GI50,SK-OV-3,92.7 µM (inactive)
same,GI50,SNB-78,54.6 µM (inactive)
same,GI50,RXF 393,34.6 µM (inactive)
same,GI50,SW-620,40.2 µM (inactive)
same,GI50,SK-MEL-28,23.2 µM (inactive)
same,GI50,HOP-18,> 100 µM (inactive)
same,GI50,OVCAR-8,37.2 µM (inactive)
same,GI50,NCI-H522,15.6 µM (inactive)
same,GI50,SF-268,39.4 µM (inactive)
same,GI50,COLO 205,18.9 µM (inactive)
same,GI50,KM-20L2,34.5 µM (inactive)
same,GI50,IGROV-1,43.8 µM (inactive)
same,GI50,UACC-257,32.4 µM (inactive)
same,GI50,M19-MEL,44.3 µM (inactive)
same,GI50,SR,36.6 µM (inactive)
same,GI50,U-251,37.4 µM (inactive)
same,GI50,MOLT-4,36.8 µM (inactive)
same,GI50,SF-539,36.1 µM (inactive)
same,GI50,ACHN,47.8 µM (inactive)
same,GI50,SK-MEL-5,17.7 µM (inactive)
same,GI50,DLD-1,44.6 µM (inactive)
same,GI50,CAKI-1,51.5 µM (inactive)
same,GI50,Malme-3M,25.2 µM (inactive)
same,GI50,DMS-273,24.1 µM (inactive)
same,GI50,A498,> 100 µM (inactive)
COC1=C(Br)C(=O)c2nc(C)ccc2C1=O,GI50,NCI-H23,12.7 µM (inactive)
same,GI50,NCI-H226,22.8 µM (inactive)
same,GI50,CCRF-CEM,0.871 µM (active)
same,GI50,OVCAR-4,13.3 µM (inactive)
same,GI50,SF-295,20.4 µM (inactive)
same,GI50,HL-60,0.993 µM (active)
same,GI50,SN12C,15.7 µM (inactive)
same,GI50,HOP-92,7.18 µM (inactive)
same,GI50,786-0,14.1 µM (inactive)
same,GI50,TK-10,18.4 µM (inactive)
same,GI50,HT-29,19.4 µM (inactive)
same,GI50,OVCAR-3,7.46 µM (inactive)
same,GI50,HOP-62,> 44.6 µM (inactive)
same,GI50,A549,20.3 µM (inactive)
same,GI50,OVCAR-5,20.4 µM (inactive)
same,GI50,SK-MEL-2,16.2 µM (inactive)
same,GI50,HCT-116,8.18 µM (inactive)
same,GI50,UACC-62,19 µM (inactive)
same,GI50,UO-31,18.5 µM (inactive)
same,GI50,EKVX,19.3 µM (inactive)
same,GI50,SNB-75,19.2 µM (inactive)
same,GI50,SNB-19,> 40.9 µM (inactive)
same,GI50,NCI-H460,15.8 µM (inactive)
same,GI50,K562,8.67 µM (inactive)
same,GI50,M14,15 µM (inactive)
same,GI50,LOX IMVI,8.39 µM (inactive)
same,GI50,KM12,17.7 µM (inactive)
same,GI50,DMS-114,15 µM (inactive)
same,GI50,SK-OV-3,19.4 µM (inactive)
same,GI50,SNB-78,18.7 µM (inactive)
same,GI50,HCC 2998,18.1 µM (inactive)
same,GI50,RXF 393,11.2 µM (inactive)
same,GI50,SW-620,8.15 µM (inactive)
same,GI50,SK-MEL-28,18.4 µM (inactive)
same,GI50,HOP-18,17.1 µM (inactive)
same,GI50,OVCAR-8,6.73 µM (inactive)
same,GI50,NCI-H522,6.97 µM (inactive)
same,GI50,SF-268,17.5 µM (inactive)
same,GI50,COLO 205,12.1 µM (inactive)
same,GI50,LXFL 529,6.28 µM (inactive)
same,GI50,KM-20L2,19 µM (inactive)
same,GI50,IGROV-1,19.6 µM (inactive)
same,GI50,UACC-257,13.6 µM (inactive)
same,GI50,M19-MEL,14.1 µM (inactive)
same,GI50,SR,3.56 µM (inactive)
same,GI50,U-251,15.1 µM (inactive)
same,GI50,MOLT-4,2.4 µM (inactive)
same,GI50,SF-539,21.5 µM (inactive)
same,GI50,ACHN,10.7 µM (inactive)
same,GI50,SK-MEL-5,18.1 µM (inactive)
same,GI50,DLD-1,5.33 µM (inactive)
same,GI50,CAKI-1,15.6 µM (inactive)
same,GI50,Malme-3M,16.8 µM (inactive)
same,GI50,DMS-273,17.2 µM (inactive)
same,GI50,A498,22 µM (inactive)
same,GI50,HCT-15,14.1 µM
